Biological target: Prostaglandin G/H synthase 2 (Homo sapiens) (UniProt P35354)
Assay: Inhibition of recombinant human COX2 expressed in baculovirus infected Sf21 cells using arachidonic acid as substrate preincubated for 5 mins followed by substrate addition and measured after 5 mins by UV-visible spectrophotometric method

Prostaglandin G/H synthase 2 (Homo sapiens), sequence (P35354 whole entry, looked up): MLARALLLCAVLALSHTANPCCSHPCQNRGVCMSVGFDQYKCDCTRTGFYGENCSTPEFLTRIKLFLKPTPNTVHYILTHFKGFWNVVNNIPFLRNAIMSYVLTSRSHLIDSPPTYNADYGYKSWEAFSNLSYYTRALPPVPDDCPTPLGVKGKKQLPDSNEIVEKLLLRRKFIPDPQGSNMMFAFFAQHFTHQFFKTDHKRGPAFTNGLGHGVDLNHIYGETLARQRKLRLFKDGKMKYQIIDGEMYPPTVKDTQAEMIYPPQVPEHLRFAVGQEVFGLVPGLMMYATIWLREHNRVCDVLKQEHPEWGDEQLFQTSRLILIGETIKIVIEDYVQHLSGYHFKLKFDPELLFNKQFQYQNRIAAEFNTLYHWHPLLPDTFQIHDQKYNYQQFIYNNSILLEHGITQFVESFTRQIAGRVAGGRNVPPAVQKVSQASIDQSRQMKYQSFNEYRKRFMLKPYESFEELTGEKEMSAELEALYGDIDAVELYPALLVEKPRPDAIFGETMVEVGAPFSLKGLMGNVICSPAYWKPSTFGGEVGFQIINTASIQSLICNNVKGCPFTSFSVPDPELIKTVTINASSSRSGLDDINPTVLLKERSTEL

| IC50 | Structure (SMILES) |
| --- | --- |
| 0.98 µM | Cc1ccc(C(=O)CC2CC(=O)N(c3ccc(S(N)(=O)=O)cc3)C2=O)cc1 (centres undefined) |
| 6.29 µM | NS(=O)(=O)c1ccc(N2C(=O)CC(CC(=O)c3ccc(Cl)cc3)C2=O)cc1 (centres undefined) |
| 2.1 µM | COc1ccc(C(=O)CC2CC(=O)N(c3ccc(S(N)(=O)=O)cc3)C2=O)cc1 (centres undefined) |
| 4.23 µM | NS(=O)(=O)c1ccc(N2C(=O)CC(CC(=O)c3ccccc3)C2=O)cc1 (centres undefined) |
| 8.94 µM | NS(=O)(=O)c1ccc(N2C(=O)CC(CC(=O)c3ccccn3)C2=O)cc1 (centres undefined) |
| 20.7 µM | NS(=O)(=O)c1ccc(N2C(=O)CC(C3CCCCCC3=O)C2=O)cc1 (centres undefined) |
| 51.4 µM | O=C1CCCC1C1CC(=O)N(c2ccccc2)C1=O (centres undefined) |
| 39.5 µM | O=C1CCCCCC1C1CC(=O)N(c2ccccc2)C1=O (centres undefined) |
| 56.6 µM | O=C1CCOCC1C1CC(=O)N(c2ccccc2)C1=O (centres undefined) |
| 21.9 µM | CC1CCC(=O)C(C2CC(=O)N(Cc3ccccc3)C2=O)C1 (centres undefined) |
| 56.5 µM | CC1CCC(=O)C(C2CC(=O)N(c3ccccc3)C2=O)C1 (centres undefined) |
| 113 µM | O=C1CCCCC1C1CC(=O)N(c2ccc(Br)cc2)C1=O (centres undefined) |
| 20 µM | O=C1CCCCC1C1CC(=O)N(Cc2ccccc2)C1=O (centres undefined) |
| 45.1 µM | O=C1CCCCC1C1CC(=O)N(c2ccccc2)C1=O (centres undefined) |
